Here are results for two compounds from patent US20040077879A1, “Bis (amino acid) molecular scaffolds” (priority 2002, published 2004).

In brackets after ≈: the same amount, converted by molar mass. Read-outs that look alike come from different tables or passages of the source.

The data set can be described thus: Solubility (dissolved, centrifuged, HPLC peak integrated relative to a tyrosine standard). The format is physicochemical. An excerpt: Pure three-mer scaffolds and five-mer scaffolds with extended rod-like structures in useful amounts have been synthesized. Three units of building block 1:pro4(2S4S) (Sequence 1) were assembled to form the molecular rod 19 using sequential solid phase synthesis on a 46 μmole scale (Scheme 4). The synthesis took place on an AM resin with a Rink Amide linker available from Novabiochem. […] After coupling three monomers, an Fmoc-Tyr(t-Bu)-OAt residue was coupled to increase the hydrophobicity of the final scaffold so that it would bind to a C18 column. After removal of the tyrosine Fmoc group, the amine terminus rapidly attacked the adjacent methyl ester to form a diketopiperazine […] (indicated in the sequence as cyclo-(Tyr)). The flexible oligomer 17 was cleaved from the resin and its mass was confirmed by reverse phase liquid chromatography with mass spectrometry (RP-LCMS). The carboxybenzyl (Cbz) groups were then removed by hydrogenolysis to obtain 18. The flexible oligomer 18 was converted into the rigidified scaffold 19 through the parallel formation of two diketopiperazine rings by exposure to 20% piperidine/DMF over 48 hours at 4° C.[25] […] Solubility was measured by dissolving the compound in 0.1% TFA, centrifuging it, injecting the solution into an HPLC and integrating the resulting peak relative to a tyrosine standard. […]

Turning to `NC(=O)[C@@H]1C[C@@]2(CN1)NC(=O)[C@@H]1C[C@@]3(CN1C2=O)NC(=O)[C@@H]1C[C@@]2(CN1C3=O)NC(=O)[C@H](Cc1ccc(O)cc1)NC2=O` [scaffold 19], under “water, read-out: soluble in water”, the solubility was over 5000 µg/mL.

For the compound `COC(=O)[C@]1(N)C[C@H]2C(=O)N[C@]3(C[C@H]4C(=O)N[C@]5(C[C@H]6C(=O)N[C@]7(C[C@H]8C(=O)N[C@@]9(CN[C@H](C(=O)N[C@@H](Cc%10ccc(O)cc%10)C(N)=O)C9)C(=O)N8C7)C(=O)N6C5)C(=O)N4C3)C(=O)N2C1` [scaffold 20], the solubility (10% D2O/H2O, unpurified material, read-out: soluble in 10% D2O/H2O) was 5000 µg/mL (≈ 5.54 mM).
